Data: publication PMC5341858, “Molecular regulation of apoptotic machinery and lipid metabolism by mTORC1/mTORC2 dual inhibitors in preclinical models of HER2+/PIK3CAmut breast cancer” (Oncotarget, 2016)

Key:
[1] = system: MDA-MB-453 and 786-O tumors; assay: In vivo antitumor efficacy, oral once daily
Protocol: (§1) Animal studies were performed under protocols approved by Institutional Animal Care and Use Committee (IACUC) of Fudan University. Balbc female nude mice bearing MDA-MB-453, HCC1806 or 786-O tumors were staged at initial tumor volume of 150-200 mm^3 and randomized into treatment groups (n=/>8). […] Lapatinib and Sunitinib were formulated in 0.5% hydroxypropyl methyl cellulose (HPMC)-0.2% tween-80 as homogeneous suspension. All test agents were prepared twice weekly. Mice were dosed orally once daily (qd). Tumor growth inhibition rate (TGI) was calculated: TGI=[1-(Vt-Vi)/(Vc-Vi)]×100, where Vt: tumor volume of drug treated group, Vc: tumor volume of vehicle control group, Vi: initial tumor volume at staging. For biomarker studies, frozen tumors were made lysates and immunoblotted as previously described. For detecting apoptosis, tumors were excised, fixed in 4% formalin for 24 h and embedded in paraffin. Slides were processed for terminal deoxynuleotidyl transferase dUTP nick end labeling (TUNEL) using an assay kit (KeyGen Biotech, KGA7061) following vendor's instruction manual. For IHC staining, tumor slides described above were deparaffinized, rehydrated and permeablized with 1% Triton X-100. Antigens were retrieved with Tris/EDTA (pH 9.0) under microwave heating for 20 min. The slides were blocked in Tris buffered saline with 5% BSA-0.3 M glycine and reacted with anti-CPT1A (Proteintech #15184-1-AP) or anti-P-ACL S455 (Abcam #59297) and detected with peroxidase-conjugated secondary antibody (Jackson # 111-035-003). Images were acquired using Leica microscope (model DMI4000D). Staining levels were analyzed on the basis of mean optical density quantified by software image pro plus 6.0.

MDA-MB-453 cells [2] = assay: Total cellular acetyl-CoA level; assay type: cell-based; details: 24 h
Protocol: (§2) Cellular glucose-to-lipid conversion was measured as described. Briefly, cells were pretreated with inhibitors for 2 h, incubated for 2 h in medium containing 2 μCi/mL D-[1-14C] glucose (PerkinElmer, NEC043X001MC). Total lipids were extracted twice with 300 μL hexane:isopropanol (3:2; vol:vol). Cell debris was carefully removed by centrifugation at 14,000 rpm for 5 min using a microcentrifuge. Radioactive lipids were dried, redissolved with 100 μL of chloroform and determined by liquid scintillation counting. A duplicate assay plate without radioactive glucose label was used to count the number of cells per treatment. Glucose to total lipid conversion rate is the radioactive counts from the extracted lipid normalized by the number of cells per hour of ^14C-glucose incubation. For acetyl-CoA assay, cells grown in 96-well plates were washed and lysed in 40 μL/well using lysis buffer. Cell lysates were transferred to V-bottom plates, cleared by centrifugation. 30 μL of the cleared cell lysates were subjected to acetyl-CoA measurement using an acetyl-CoA assay kit (Sigma, MAK-039) following manufacturer's assay manual. Duplicate assay plates were used to count the number of cells per treatment for normalization in determining cellular acetyl-CoA levels.

MDA-MB-231 cells = assay: Glucose-to-lipid conversion (de novo lipid synthesis); assay type: cell-based; details: similar treatment, 4 h saturating dose
Protocol: as §2

MDA-MB-453 cells [3] = assay: as above; assay type: cell-based; details: 4 h, saturating dose (5 μM MTI-31, 1 μM rapamycin)
Protocol: as §2

[4] = system: P-S6 and P-AKT in MDA-MB-453 tumors; assay: mTOR biomarkers in tumor tissue (immunoblot); assay type: in vivo, mice
Protocol: as §1, with “Slides were processed for terminal deoxynuleotidyl transferase dUTP nick end labeling (TUNEL) using an assay kit (KeyGen Biotech, KGA7061) following vendor's instruction manual. For IHC staining, tumor slides described above were deparaffinized, rehydrated and permeablized with 1% Triton X-100. Antigens were retrieved with Tris/EDTA (pH 9.0) under microwave heating for 20 min.” left out, “Images were acquired using Leica microscope (model DMI4000D).” left out

AURKB = target: T1, AURKB (Homo sapiens, UniProt Q96GD4); assay: KINOMEscan binding assay; details: 1000 nM, percent control relative to vehicle
T1 construct: purchased DiscoveRx KINOMEscan
Text: (§3) IC50 values were generated using Graphpad PRISM 5 software.

IGF1R = target: T2, IGF1R (Homo sapiens, UniProt P08069); assay: KINOMEscan binding assay; details: 1000 nM, percent control relative to vehicle
T2 construct: purchased DiscoveRx KINOMEscan
Text: as §3

FLT3 = target: T3, FLT3 (Homo sapiens, UniProt P36888); assay: KINOMEscan binding assay; details: 1000 nM, percent control relative to vehicle
T3 construct: purchased DiscoveRx KINOMEscan
Text: as §3

PIK3CG = PIK3CG (Homo sapiens, UniProt P48736); assay: KINOMEscan binding assay
Text: as §3

ULK2 = target: T4, ULK2 (Homo sapiens, UniProt Q8IYT8); assay: KINOMEscan binding assay; details: 1000 nM, percent control relative to vehicle
T4 construct: purchased DiscoveRx KINOMEscan
Text: as §3

PLK1 = target: T5, PLK1 (Homo sapiens, UniProt P53350); assay: KINOMEscan binding assay; details: 1000 nM, percent control relative to vehicle
T5 construct: purchased DiscoveRx KINOMEscan
Text: as §3

GSK3B = target: T6, GSK3B (Homo sapiens, UniProt P49841); assay: KINOMEscan binding assay; details: 1000 nM, percent control relative to vehicle
T6 construct: purchased DiscoveRx KINOMEscan
Text: as §3

JNK3 = target: T7, JNK3 (Homo sapiens, UniProt P53779); assay: KINOMEscan binding assay; details: 1000 nM, percent control relative to vehicle
T7 construct: purchased DiscoveRx KINOMEscan
Text: as §3

EPHA2 = target: T8, EPHA2 (Homo sapiens, UniProt P29317); assay: KINOMEscan binding assay; details: 1000 nM, percent control relative to vehicle
T8 construct: purchased DiscoveRx KINOMEscan
Text: as §3

[5] = target: T9, TYK2 (JH1domain-catalytic) (Homo sapiens, UniProt P29597); assay: KINOMEscan binding assay; details: 1000 nM, percent control relative to vehicle
T9 construct: TYK2 (JH1domain-catalytic); purchased DiscoveRx KINOMEscan
Text: as §3

PDGFRA = target: T10, PDGFRA (Homo sapiens, UniProt P16234); assay: KINOMEscan binding assay; details: 1000 nM, percent control relative to vehicle
T10 construct: purchased DiscoveRx KINOMEscan
Text: as §3

ALK = target: T11, ALK (Homo sapiens, UniProt Q9UM73); assay: KINOMEscan binding assay; details: 1000 nM, percent control relative to vehicle
T11 construct: purchased DiscoveRx KINOMEscan
Text: as §3

[6] = system: HER2-/PIK3CAwt HCC1806 breast tumor model; assay: In vivo antitumor efficacy, oral once daily; set-up: species or system mice; details: HCC1806 tumors; even at the highest 40 mg/kg oral qd
Protocol: as §1, with “Slides were processed for terminal deoxynuleotidyl transferase dUTP nick end labeling (TUNEL) using an assay kit (KeyGen Biotech, KGA7061) following vendor's instruction manual. For IHC staining, tumor slides described above were deparaffinized, rehydrated and permeablized with 1% Triton X-100. Antigens were retrieved with Tris/EDTA (pH 9.0) under microwave heating for 20 min.” left out, “Images were acquired using Leica microscope (model DMI4000D).” left out

[7] = system: mTORC1 substrates P-S6K1(T389), P-S6(S235/6), P-4EBP1(T70) and mTORC2 substrate P-AKT(S473) in 786-O, U87MG and MDA-MB-453 cells; assay: Immunoblotting of mTORC1 and mTORC2 biomarkers in tumor cells; assay type: cell-based
Protocol: For standard assay of inhibitor effects on cellular biomarker expression, cells were plated at pre-determined density in 6-well or 12-well culture plates for overnight, treated with inhibitors for the indicated doses and times. Cells were lysed in NuPAGE-LDS lysis buffer (Invitrogen) and immunoblotted with antibodies including P-S6K1(T389), S6, P-4EBP1(T70), 4EBP1, P-GSK3(S21/9), GSK3, cyclin D1, Raptor, Rictor, P-ACL(S455), ACL, cleaved-PARP (Cell Signaling Technology); P-S6(S235/6), AKT(S473), AKT, Bim (Abcam-Epitomics); c-Myc (Santa Cruz); Mcl-1 (Affinity); CPT1A (Proteintech); β-actin and GAPDH (Bioworld).

Sequence of PIK3CG (P48736 whole entry): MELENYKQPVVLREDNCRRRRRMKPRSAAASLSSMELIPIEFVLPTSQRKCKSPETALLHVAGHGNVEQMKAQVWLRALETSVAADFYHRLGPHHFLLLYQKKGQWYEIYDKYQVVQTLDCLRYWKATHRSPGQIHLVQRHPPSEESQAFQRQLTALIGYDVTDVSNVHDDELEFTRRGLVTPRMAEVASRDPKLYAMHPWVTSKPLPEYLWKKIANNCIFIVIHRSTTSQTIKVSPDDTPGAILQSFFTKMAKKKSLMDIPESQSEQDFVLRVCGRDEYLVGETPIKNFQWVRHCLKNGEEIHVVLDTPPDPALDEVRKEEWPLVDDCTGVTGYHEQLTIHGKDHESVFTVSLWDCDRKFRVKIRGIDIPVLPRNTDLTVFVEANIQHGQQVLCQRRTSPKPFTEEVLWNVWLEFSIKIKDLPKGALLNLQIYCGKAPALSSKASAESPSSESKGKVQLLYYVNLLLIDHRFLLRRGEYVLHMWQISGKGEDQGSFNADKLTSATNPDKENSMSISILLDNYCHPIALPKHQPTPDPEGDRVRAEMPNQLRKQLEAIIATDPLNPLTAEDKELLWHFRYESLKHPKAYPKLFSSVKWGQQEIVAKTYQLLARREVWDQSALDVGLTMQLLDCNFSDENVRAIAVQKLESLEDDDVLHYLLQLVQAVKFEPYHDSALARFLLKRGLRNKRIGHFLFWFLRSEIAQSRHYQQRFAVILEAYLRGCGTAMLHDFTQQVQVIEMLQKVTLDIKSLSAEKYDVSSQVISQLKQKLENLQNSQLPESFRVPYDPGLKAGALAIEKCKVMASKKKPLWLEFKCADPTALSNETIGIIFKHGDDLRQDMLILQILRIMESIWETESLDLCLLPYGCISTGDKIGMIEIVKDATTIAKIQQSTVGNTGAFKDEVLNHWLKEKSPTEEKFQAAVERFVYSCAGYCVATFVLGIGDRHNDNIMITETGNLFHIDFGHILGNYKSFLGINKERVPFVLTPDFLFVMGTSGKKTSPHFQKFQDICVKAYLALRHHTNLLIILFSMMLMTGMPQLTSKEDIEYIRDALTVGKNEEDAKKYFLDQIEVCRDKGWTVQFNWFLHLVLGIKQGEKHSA
T10 sequence (P16234 24-1089): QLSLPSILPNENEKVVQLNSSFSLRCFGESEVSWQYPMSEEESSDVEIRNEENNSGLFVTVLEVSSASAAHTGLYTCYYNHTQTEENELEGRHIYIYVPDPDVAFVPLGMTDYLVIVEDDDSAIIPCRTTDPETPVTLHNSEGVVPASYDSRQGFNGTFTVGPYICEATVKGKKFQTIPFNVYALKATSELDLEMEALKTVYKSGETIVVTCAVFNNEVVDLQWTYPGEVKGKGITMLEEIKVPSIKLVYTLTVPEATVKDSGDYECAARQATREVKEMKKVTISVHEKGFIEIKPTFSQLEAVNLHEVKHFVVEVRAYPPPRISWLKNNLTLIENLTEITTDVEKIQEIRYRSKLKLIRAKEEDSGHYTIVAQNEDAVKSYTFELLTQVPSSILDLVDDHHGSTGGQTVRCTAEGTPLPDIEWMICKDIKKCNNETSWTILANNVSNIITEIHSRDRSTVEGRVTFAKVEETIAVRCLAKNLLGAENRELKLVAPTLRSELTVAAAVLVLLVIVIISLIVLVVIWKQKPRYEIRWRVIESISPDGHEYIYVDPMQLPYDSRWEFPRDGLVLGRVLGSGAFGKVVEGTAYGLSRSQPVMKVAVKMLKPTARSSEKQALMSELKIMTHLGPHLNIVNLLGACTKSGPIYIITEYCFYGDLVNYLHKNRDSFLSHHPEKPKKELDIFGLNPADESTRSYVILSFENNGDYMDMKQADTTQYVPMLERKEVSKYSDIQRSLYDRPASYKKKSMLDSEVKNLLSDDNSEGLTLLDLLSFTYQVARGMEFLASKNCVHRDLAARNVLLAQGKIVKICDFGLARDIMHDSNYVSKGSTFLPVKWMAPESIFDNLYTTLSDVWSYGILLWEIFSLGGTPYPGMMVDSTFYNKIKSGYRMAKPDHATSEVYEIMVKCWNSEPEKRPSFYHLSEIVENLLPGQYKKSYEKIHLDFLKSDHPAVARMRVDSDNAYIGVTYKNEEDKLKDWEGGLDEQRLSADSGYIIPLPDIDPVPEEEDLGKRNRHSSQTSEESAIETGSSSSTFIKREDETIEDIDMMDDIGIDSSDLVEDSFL
T11 sequence (Q9UM73 19-1620): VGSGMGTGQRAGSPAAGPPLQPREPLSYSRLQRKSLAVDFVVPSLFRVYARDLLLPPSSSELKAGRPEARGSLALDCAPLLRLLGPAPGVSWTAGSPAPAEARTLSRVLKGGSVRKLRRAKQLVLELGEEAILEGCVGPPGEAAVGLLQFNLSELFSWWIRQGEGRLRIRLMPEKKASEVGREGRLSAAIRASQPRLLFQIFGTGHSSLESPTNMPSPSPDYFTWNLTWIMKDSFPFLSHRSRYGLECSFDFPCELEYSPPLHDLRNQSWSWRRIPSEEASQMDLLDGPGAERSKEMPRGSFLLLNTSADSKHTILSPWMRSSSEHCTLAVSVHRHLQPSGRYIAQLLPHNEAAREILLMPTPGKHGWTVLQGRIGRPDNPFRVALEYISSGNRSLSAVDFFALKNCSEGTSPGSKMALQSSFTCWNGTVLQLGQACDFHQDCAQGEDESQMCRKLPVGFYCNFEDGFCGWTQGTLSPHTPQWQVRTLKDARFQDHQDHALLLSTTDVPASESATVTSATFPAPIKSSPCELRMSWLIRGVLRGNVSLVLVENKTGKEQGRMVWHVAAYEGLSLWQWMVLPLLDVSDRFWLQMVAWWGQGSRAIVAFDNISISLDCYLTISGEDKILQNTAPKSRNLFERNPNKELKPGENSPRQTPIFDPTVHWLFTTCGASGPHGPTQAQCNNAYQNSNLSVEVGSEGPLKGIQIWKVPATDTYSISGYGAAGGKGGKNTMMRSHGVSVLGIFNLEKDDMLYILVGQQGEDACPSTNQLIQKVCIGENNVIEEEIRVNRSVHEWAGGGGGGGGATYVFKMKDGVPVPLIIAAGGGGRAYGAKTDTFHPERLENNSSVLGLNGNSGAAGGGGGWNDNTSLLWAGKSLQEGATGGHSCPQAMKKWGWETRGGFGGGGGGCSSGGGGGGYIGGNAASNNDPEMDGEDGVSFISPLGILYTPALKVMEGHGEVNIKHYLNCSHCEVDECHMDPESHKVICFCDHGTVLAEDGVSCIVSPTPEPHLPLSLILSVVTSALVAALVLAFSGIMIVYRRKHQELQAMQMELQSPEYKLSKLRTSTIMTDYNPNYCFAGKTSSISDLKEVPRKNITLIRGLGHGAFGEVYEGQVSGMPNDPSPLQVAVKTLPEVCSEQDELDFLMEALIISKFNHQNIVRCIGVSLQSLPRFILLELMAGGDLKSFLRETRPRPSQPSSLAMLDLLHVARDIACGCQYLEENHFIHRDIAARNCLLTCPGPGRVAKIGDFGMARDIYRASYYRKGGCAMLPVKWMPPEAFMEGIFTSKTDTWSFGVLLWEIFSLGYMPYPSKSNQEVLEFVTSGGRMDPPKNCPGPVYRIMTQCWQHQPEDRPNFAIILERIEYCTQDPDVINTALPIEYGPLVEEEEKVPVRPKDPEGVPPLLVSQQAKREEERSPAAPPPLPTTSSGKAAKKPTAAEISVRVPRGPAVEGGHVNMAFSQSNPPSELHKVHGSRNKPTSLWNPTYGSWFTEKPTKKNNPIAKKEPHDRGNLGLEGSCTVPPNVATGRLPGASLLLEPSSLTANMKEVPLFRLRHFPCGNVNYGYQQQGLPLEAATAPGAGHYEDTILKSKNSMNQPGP
T8 sequence (P29317 24-976): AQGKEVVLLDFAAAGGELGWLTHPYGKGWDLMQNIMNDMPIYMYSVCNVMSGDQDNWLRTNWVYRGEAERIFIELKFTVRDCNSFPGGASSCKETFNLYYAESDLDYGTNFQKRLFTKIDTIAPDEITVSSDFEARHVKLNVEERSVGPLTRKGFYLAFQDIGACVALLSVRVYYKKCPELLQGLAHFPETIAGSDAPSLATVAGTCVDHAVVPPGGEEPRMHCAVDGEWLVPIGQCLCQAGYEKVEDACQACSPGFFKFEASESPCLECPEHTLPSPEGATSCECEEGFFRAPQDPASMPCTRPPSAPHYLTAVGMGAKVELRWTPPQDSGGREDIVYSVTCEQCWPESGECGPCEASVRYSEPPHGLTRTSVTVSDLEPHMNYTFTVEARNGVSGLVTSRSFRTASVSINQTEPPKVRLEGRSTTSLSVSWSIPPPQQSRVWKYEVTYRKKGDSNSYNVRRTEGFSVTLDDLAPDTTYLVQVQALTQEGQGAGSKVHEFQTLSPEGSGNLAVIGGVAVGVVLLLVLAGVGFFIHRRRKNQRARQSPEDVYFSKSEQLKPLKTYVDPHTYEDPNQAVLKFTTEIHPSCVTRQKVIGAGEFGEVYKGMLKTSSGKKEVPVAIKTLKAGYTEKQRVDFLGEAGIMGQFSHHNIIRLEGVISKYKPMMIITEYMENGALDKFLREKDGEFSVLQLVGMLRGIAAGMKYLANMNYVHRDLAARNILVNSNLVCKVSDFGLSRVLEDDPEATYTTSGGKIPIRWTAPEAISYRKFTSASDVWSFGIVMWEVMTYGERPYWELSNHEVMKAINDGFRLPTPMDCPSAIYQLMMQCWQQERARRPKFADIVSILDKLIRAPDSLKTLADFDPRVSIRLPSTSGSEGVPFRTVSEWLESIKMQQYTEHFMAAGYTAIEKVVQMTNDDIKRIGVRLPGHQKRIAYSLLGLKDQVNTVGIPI
T1 sequence (Q96GD4 whole entry): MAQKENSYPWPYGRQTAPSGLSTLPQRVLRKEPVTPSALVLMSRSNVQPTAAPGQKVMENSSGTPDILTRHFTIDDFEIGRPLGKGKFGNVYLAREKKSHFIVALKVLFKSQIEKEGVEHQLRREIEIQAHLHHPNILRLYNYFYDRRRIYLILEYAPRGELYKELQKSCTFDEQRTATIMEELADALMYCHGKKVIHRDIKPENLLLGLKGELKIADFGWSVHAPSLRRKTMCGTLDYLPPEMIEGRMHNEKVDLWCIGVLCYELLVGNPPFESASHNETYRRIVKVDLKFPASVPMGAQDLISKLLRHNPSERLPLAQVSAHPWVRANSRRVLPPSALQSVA

## CNC(=O)c1cccc(-c2ccc3c(N4C5CCC4COC5)nc(N4CCOC[C@@H]4C)nc3n2)c1 [MTI-31]
[1]; 5 mg/kg oral qd, p<0.01
  tumor growth inhibition (TGI) at MED: > 50%
[1]; 40 mg/kg oral qd, without mortality
  body weight loss at MTD: 7-15%
[1]; nude mice bearing large size MDA-MB-453 tumors, 40 mg/kg qd
  tumor response, large size tumors: rapid and dramatic tumor regression
[1]; oral, qd, nude mice, MDA-MB-453 and 786-O models
  minimum efficacious dose (MED): 5 mg/kg
[1]; oral, qd, nude mice, without mortality
  maximum tolerated dose (MTD): 40 mg/kg
MDA-MB-453 cells [2]
  reduction in acetyl-CoA: 67%
MDA-MB-231 cells
  effect on de novo lipid synthesis: did not significantly reduce lipid synthesis
MDA-MB-453 cells [3]
  suppression of de novo lipid synthesis (14C-glucose-to-lipid conversion rate): 70%
[4]; 5 mg/kg oral qd
  P-S6 and P-AKT levels in tumor tissue: significantly reduced
[4]; 10 mg/kg oral qd
  P-S6 and P-AKT levels in tumor tissue: nearly complete suppression
AURKB
  % Control: 80%
IGF1R
  % Control: 100%
FLT3
  % Control: 100%
PIK3CG
  Kd: > 1000 nM
PIK3CG; 1000 nM, percent control relative to vehicle
  % Control: 100%
ULK2
  % Control: 80%
PLK1
  % Control: 78%
GSK3B
  % Control: 56%
JNK3
  % Control: 96%
EPHA2
  % Control: 98%
[5]
  % Control: 63%
PDGFRA
  % Control: 93%
ALK
  % Control: 78%
[6]
  antitumor efficacy: limited efficacy
[7]; read-out: concentration achieving 50% inhibition of mTORC1 and mTORC2 substrates, 786-O, U87MG and MDA-MB-453 cells, 6 h treatment
  IC50: ≤ 120 nM
[7]; several relevant tumor models (cells), read-out: EC50, inhibition of mTORC1/mTORC2 signaling
  EC50: ≤ 120 nM
